{"source": "patent US20100093541A1", "about": "“HERBICIDE COMBINATION COMPRISING DIMETHOXYTRIAZINYL SUBSTITUTED DIFLUOROMETHANESULFONYLANILIDES” (BAYER CROPSCIENCE AG, priority 2008, published 2010)", "format_in_all_cases": "in vivo", "key": {"[1]": {"test_system": "Triticum aestivum (TRZAS)", "test": "Post-emergence action, greenhouse pot test, visual scoring", "description": "(§1) Seeds or rhizome pieces of mono- and dicotyledonous harmful and useful plants were placed in peat pots (diameter 4 cm) filled with sandy loam and then covered with soil. The pots were kept in a greenhouse under optimum conditions. In addition, harmful plants encountered in paddy rice cultivation were cultivated in pots with a water level 2 cm above the soil surface.\n(§2) About three weeks after the start of the cultivation, the test plants were treated at the 2- to 3-leaf stage. The herbicides, formulated as powder or liquid concentrates, were, either alone or in the combinations according to the invention, sprayed in various dosages on to the green parts of the plants using an application rate of 600 l of water/ha (converted). For further cultivation of the plants, the pots were then again kept under optimum conditions in a greenhouse.\n(§3) The visual scoring of the herbicidal effects was carried out in intervals up to 21 days after the treatment. Scoring was carried out in percent in comparison to the untreated control plants. 0%=no herbicidal activity, 100%=complete herbicidal activity=complete kill.\n(§4) The percentages from the treatments with the herbicides alone (=individual application) and with the combinations according to the invention (=mixtures) were employed to calculate interactions using the method of Colby. When the observed efficacies of the mixtures exceed the formal sum of the values of the tests with individual applications, they also exceed the expected value according to Colby, which is calculated using the formula below (cf. S. R. Colby; in Weeds 15 (1967) pp. 20 to 22):\n(§5) • A, B=activity of components A and B in percent at a dosage of a and b g of ai/ha (=gramm of active substance per hectare), respectively. • E=expected value in % at a dosage of a+b g of ai/ha.\n(§6) The combinations according to the invention of herbicides from group (A) with herbicides from group (B) were tested on a broad spectrum of important harmful plants (weed grasses, broad-leaved weeds/Cyperaceae) and useful plants: Triticum aestivum (TRZAS), Stellaria media (STEME), Lolium multiflorum (LOLMU), Veronica persica (VERPE), Alopecurus myosuroides (ALOMY), Matricaria inodora (MATIN), Brassica napus (BRSNW), Viola tricolor (VIOTR), Avena fatua (AVEFA), Amaranthus retroflexus (AMARE), Zea mays (ZEAMX), Pharbitis purpurea (PHBPU), Setaria viridis (SETVI), Fallopia (ex Polygonum) convolvulus (POLCO), Echinochloa crus-galli (ECHCG), Abuthilon theophrasti (ABUTH), Cyperus esculentus (CYPES), Oryza sativa (ORYSA).\n(§7) Of particular interest are the results shown in the tables (Tab.) below, where the following key is used: • (1) EPPO code (former Bayer code) for the treated plant (see above) • (2) Time of scoring: DAT (days after treatment) • (3) Component A tested (identifying number) • (4) Component B tested (identifying number) • (5) Dosage component A [g of ai/ha] • (6) Dosage component B [g of ai/ha] • (7) % activity found • (8) E value (calculated according to Colby; see above) • (9) Comments: “SYNERGY”=synergistic interaction (E value<% activity found); “SAFENING”=safener action on useful plant (E value>% activity found)"}, "[2]": {"test_system": "Cyperus esculentus (CYPES)", "test": "Post-emergence action against weeds, greenhouse pot test, visual scoring", "description": "as §1, §2, §3, §4, §5"}, "Setaria viridis (SETVI)": {"test_system": "Setaria viridis (SETVI)", "test": "Post-emergence action against weeds, greenhouse pot test, visual scoring", "description": "as §1, §2, §3, §4, §5, §6, §7"}, "Viola tricolor (VIOTR)": {"test_system": "Viola tricolor (VIOTR)", "test": "Post-emergence action against weeds, greenhouse pot test, visual scoring", "description": "as §1, §2, §3, §4, §5, §6, §7"}, "Avena fatua (AVEFA)": {"test_system": "Avena fatua (AVEFA)", "test": "Post-emergence action against weeds, greenhouse pot test, visual scoring", "description": "as §1, §2, §3, §4, §5, §6, §7"}, "[3]": {"test_system": "Matricaria inodora (MATIN)", "test": "Post-emergence action against weeds, greenhouse pot test, visual scoring", "conditions": "21 DAT", "description": "as §1, §2, §3, §4, §5, §6, §7"}, "[4]": {"test_system": "Fallopia (ex Polygonum) convolvulus (POLCO)", "test": "Post-emergence action against weeds, greenhouse pot test, visual scoring", "conditions": "10 DAT, component B 150 g of ai/ha", "description": "as §1, §2, §3, §4, §5, §6, §7"}, "Oryza sativa (ORYSA)": {"test_system": "Oryza sativa (ORYSA)", "test": "Post-emergence action, greenhouse pot test, visual scoring", "conditions": "21 DAT, component B 150 g of ai/ha", "description": "as §1, §2, §3, §4, §5, §6, §7"}, "Zea mays (ZEAMX)": {"test_system": "Zea mays (ZEAMX)", "test": "Post-emergence action, greenhouse pot test, visual scoring", "description": "as §1, §2, §3, §4, §5, §6, §7"}, "[5]": {"test_system": "Alopecurus myosuroides (ALOMY)", "test": "Post-emergence action against weeds, greenhouse pot test, visual scoring", "conditions": "21 DAT, component B 40 g of ai/ha", "description": "as §1, §2, §3, §4, §5, §6, §7"}, "[6]": {"conditions": "10 DAT, component B 50 g of ai/ha"}, "[7]": {"conditions": "21 DAT, component B 50 g of ai/ha"}, "[8]": {"conditions": "21 DAT, component B 150 g of ai/ha"}, "[9]": {"conditions": "21 DAT, component B 120 g of ai/ha"}, "[10]": {"conditions": "21 DAT, component B 40 g of ai/ha"}}, "data": [{"smiles": "COc1nc(OC)nc(C(=O)c2cccc(F)c2N(C)S(=O)(=O)C(F)F)n1", "note": "[A-1]", "values": [{"measurement": "% activity found", "setting": "[1]; 21 DAT, component A 12 g of ai/ha, Table 16", "result": 0, "unit": "%"}]}, {"smiles": "N#Cc1cc(Br)c(O)c(Br)c1", "note": "[B1-1, 3,5-dibromo-4-hydroxybenzonitrile]", "values": [{"measurement": "% activity found", "setting": "[2]; [6]", "result": 0, "unit": "%"}, {"measurement": "% activity found", "setting": "[2]; [7]", "result": 0, "unit": "%"}, {"measurement": "% activity found", "setting": "[2]; [8]", "result": 0, "unit": "%"}, {"measurement": "% activity found", "setting": "Setaria viridis (SETVI); [6]", "result": 20, "unit": "%"}, {"measurement": "% activity found", "setting": "Setaria viridis (SETVI); [7]", "result": 20, "unit": "%"}, {"measurement": "% activity found", "setting": "Setaria viridis (SETVI); [8]", "result": 20, "unit": "%"}, {"measurement": "% activity found", "setting": "Viola tricolor (VIOTR); [6]", "result": 20, "unit": "%"}, {"measurement": "% activity found", "setting": "Viola tricolor (VIOTR); [8]", "result": 20, "unit": "%"}, {"measurement": "% activity found", "setting": "Avena fatua (AVEFA); [6]", "result": 0, "unit": "%"}, {"measurement": "% activity found", "setting": "[3]; component B 150 g of ai/ha", "result": 70, "unit": "%"}, {"measurement": "% activity found", "setting": "[3]; component B 150 g of ai/ha, Table 9", "result": 60, "unit": "%"}, {"measurement": "% activity found", "setting": "[4]", "result": 10, "unit": "%"}, {"measurement": "% activity found", "setting": "[1]; [8]", "result": 0, "unit": "%"}, {"measurement": "% activity found", "setting": "Oryza sativa (ORYSA)", "result": 0, "unit": "%"}, {"measurement": "% activity found", "setting": "Zea mays (ZEAMX); [6]", "result": 0, "unit": "%"}, {"measurement": "% activity found", "setting": "Zea mays (ZEAMX); 10 DAT, component B 150 g of ai/ha", "result": 20, "unit": "%"}, {"measurement": "% activity found", "setting": "Zea mays (ZEAMX); [7]", "result": 0, "unit": "%"}]}, {"smiles": "C#CCN(C)c1c(C#N)cnn1-c1nn2c(c1Cl)CCCC2", "note": "[B1-4, 1-(3-chloro-4,5,6,7-tetrahydropyrazolo[1,5-a]pyridin-2-yl)-5-(methyl-2-propynylamino)-1H-pyrazole-4-carbonitrile]", "values": [{"measurement": "% activity found", "setting": "[2]; [9]", "result": 40, "unit": "%"}, {"measurement": "% activity found", "setting": "Avena fatua (AVEFA); [10]", "result": 40, "unit": "%"}, {"measurement": "% activity found", "setting": "[5]", "result": 30, "unit": "%"}, {"measurement": "% activity found", "setting": "[3]; component B 120 g of ai/ha", "result": 80, "unit": "%"}, {"measurement": "% activity found", "setting": "[1]; 10 DAT, component B 40 g of ai/ha", "result": 40, "unit": "%"}, {"measurement": "% activity found", "setting": "[1]; 10 DAT, component B 120 g of ai/ha", "result": 60, "unit": "%"}, {"measurement": "% activity found", "setting": "[1]; [10]", "result": 30, "unit": "%"}, {"measurement": "% activity found", "setting": "[1]; [9]", "result": 60, "unit": "%"}]}]}
